Several values for one entry are separate records, joined by “and”; a condition that tells them apart may be missing. Equal values may be shown once.
Legend:
[1] = biological target: EGFR (UniProt P00533)
[2] = biological target: EGFR (UniProt P00533); conditions: various cell lines

EGFR, sequence (P00533 whole entry, looked up): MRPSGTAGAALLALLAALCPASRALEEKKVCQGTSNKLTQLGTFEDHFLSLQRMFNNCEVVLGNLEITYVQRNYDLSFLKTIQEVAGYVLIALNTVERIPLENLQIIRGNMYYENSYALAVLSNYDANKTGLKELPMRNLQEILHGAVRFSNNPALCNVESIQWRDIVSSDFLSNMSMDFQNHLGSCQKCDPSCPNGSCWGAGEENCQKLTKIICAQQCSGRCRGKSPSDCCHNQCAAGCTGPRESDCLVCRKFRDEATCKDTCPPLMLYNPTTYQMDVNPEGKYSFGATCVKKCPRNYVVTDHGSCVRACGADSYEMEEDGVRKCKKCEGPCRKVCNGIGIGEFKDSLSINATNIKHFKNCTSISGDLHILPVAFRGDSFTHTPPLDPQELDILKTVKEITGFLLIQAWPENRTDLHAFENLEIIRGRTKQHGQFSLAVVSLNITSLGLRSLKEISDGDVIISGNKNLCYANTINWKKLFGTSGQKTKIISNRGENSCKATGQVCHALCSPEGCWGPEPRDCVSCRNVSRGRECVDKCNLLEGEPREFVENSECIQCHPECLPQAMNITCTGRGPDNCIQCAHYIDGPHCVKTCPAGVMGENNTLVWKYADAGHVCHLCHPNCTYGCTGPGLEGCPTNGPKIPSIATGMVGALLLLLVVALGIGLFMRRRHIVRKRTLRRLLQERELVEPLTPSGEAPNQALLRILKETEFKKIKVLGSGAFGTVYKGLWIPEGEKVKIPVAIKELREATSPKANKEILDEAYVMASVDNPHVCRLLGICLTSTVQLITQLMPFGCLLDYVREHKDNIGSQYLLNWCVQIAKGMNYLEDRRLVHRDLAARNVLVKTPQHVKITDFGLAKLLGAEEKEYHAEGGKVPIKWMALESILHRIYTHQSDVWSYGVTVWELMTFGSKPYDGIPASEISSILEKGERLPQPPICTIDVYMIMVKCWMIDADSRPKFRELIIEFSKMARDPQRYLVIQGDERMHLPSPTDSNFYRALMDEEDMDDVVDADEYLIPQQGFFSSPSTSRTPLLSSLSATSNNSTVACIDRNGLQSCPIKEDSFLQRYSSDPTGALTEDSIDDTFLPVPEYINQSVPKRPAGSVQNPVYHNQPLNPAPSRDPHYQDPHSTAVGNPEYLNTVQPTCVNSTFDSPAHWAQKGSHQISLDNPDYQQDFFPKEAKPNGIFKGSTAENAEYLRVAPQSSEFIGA

COc1cc2c(NC3CC3c3ccccc3)ncnc2cc1OCCCN(C)C (centres undefined)
IC50 [1]: 0.003 µM

C=CC(=O)Nc1cccc2c1sc1c(Nc3cccc(Br)c3)ncnc12
IC50 [2]: 0.024 µM
IC50 [1]: 0.0014 µM

Clc1cccc(Nc2ncnc3[nH]c4ccccc4c23)c1
IC50 [1]: 0.006 µM

CNc1cc2ncnc(Nc3cccc(Br)c3)c2cn1
IC50 [1]: 9.1e-05 µM

Nc1ccc(-c2n[nH]c3ncnc(Nc4cccc(Cl)c4)c23)cc1
IC50 [1]: 0.002 µM

Brc1cccc(Nc2ncnc3cc(NCCCN4CCOCC4)ncc23)c1
IC50 [2]: 0.038 µM
IC50 [1]: 0.0074 µM

Brc1cccc(Nc2ncnc3ccccc23)c1
IC50 [1]: 0.02 µM and 0.023 µM

Brc1cccc(Nc2ncnc3cc4[nH]ccc4cc23)c1
IC50 [2]: 0.02 µM
IC50 [1]: 0.00044 µM

COc1cc2nccc(Oc3cccc(Br)c3)c2cc1OC
IC50 [2]: 2.5 µM

Cc1cccc2c(CCC(=O)O)c(SSc3[nH]c4c(C)cccc4c3CCC(=O)O)[nH]c12
IC50 [1]: 1.5 µM

CNc1cc2c(Nc3cccc(Br)c3)ncnc2cn1
IC50 [2]: 0.013 µM

COc1cc2ncnc(N(C)c3cccc(C)c3)c2cc1OC
IC50 [1]: 12 µM

Brc1cccc(Nc2ncnc3cnc(NCCN4CCOCC4)cc23)c1
IC50 [2]: 0.0079 µM

O=CN/C=C/c1cc(O)ccc1O
IC50 [1]: 0.367 µM

CN(C)CCNc1cc2c(Nc3cccc(Br)c3)ncnc2cn1
IC50 [2]: 0.048 µM

CNc1ncc2ncnc(Nc3cccc(Br)c3)c2n1
IC50 [2]: 0.03 µM

Brc1cccc(Nc2ncnc3cc4[nH]ncc4cc23)c1
IC50 [1]: 0.00044 µM

COc1cc2ncnc(N[C@@H](C)c3cccc(Br)c3)c2cc1OC
IC50 [1]: 3.76 µM

Nc1nc(N)c2c(Nc3cccc(Cl)c3)n[nH]c2n1
IC50 [1]: 0.22 µM

COc1cc2ncnc(NC3CC3c3ccccc3)c2cc1OC (centres undefined)
IC50 [1]: 0.01 µM

C/C(O)=C(/C#N)C(=O)Nc1ccc(C(F)(F)F)cc1
IC50 [2]: 35 µM

COc1cc2ncnc(Nc3cncc4ccccc34)c2cc1OC
IC50 [1]: 0.006 µM

C=CC(=O)Nc1ccc2c(c1)sc1c(Nc3cccc(Br)c3)ncnc12
IC50 [1]: 0.021 µM

Brc1cccc(Nc2ncnc3cc4[nH]cc(CN5CCOCC5)c4cc23)c1
IC50 [2]: 0.0096 µM

COc1cc2ncnc(N[C@H](C)c3cccc(Br)c3)c2cc1OC
IC50 [1]: 0.0016 µM

Brc1cccc(Nc2ncnc3cc4c(ccn4CCN4CCOCC4)cc23)c1
IC50 [2]: 0.016 µM

C=CC(=O)Nc1ccc2sc3c(Nc4cccc(Br)c4)ncnc3c2c1
IC50 [1]: 0.023 µM

Clc1cccc(Nc2ncnc3[nH]nc(Nc4cccc(Cl)c4)c23)c1
IC50 [1]: 0.033 µM

CN(C)Cc1c[nH]c2cc3ncnc(Nc4cccc(Br)c4)c3cc12
IC50 [2]: 0.0097 µM

COc1cc2ncnc(Oc3cccc(Br)c3)c2cc1OC
IC50 [2]: 0.07 µM

COc1cc2ncnc(NCc3cccc(Br)c3)c2cc1OC
IC50 [1]: 0.01 µM

Cc1cccc(N(C)c2ncnc3[nH]ncc23)c1
IC50 [1]: > 50 µM

CNC(=O)c1c([Se][Se]c2c(C(=O)NC)c3ccccc3n2C)n(C)c2ccccc12
IC50 [1]: 6.1 µM

Clc1cccc(Nc2ncnc3ccccc23)c1
IC50 [1]: 0.04 µM and 0.027 µM

Brc1cccc(Nc2ncnc3cc4cn[nH]c4cc23)c1
IC50 [1]: 0.00034 µM

Brc1cccc(Nc2ncnc3cnc(NCCc4c[nH]cn4)nc23)c1
IC50 [2]: 0.0051 µM

COc1cc2ncnc(Nc3ccc(F)c(Br)c3)c2cc1OCCCN1CCOCC1
IC50 [1]: 0.02 µM

COc1cc2cc(-c3ccccc3)c(Cl)nc2cc1OC
IC50 [2]: > 0.03 µM

Cn1c(SSc2c(C(=O)Nc3ccccc3)c3ccccc3n2C)c(C(=O)Nc2ccccc2)c2ccccc21
IC50 [1]: 20 µM

CN(C)CCCCNc1cc2ncnc(Nc3cccc(Br)c3)c2cn1
IC50 [2]: 0.0081 µM
IC50 [1]: 0.0019 µM

COc1cccc(CNc2n[nH]c3ncnc(Nc4cccc(Cl)c4)c23)c1
IC50 [1]: 0.008 µM

CC(=O)Oc1cccc2c1c(C(=O)Nc1ccccc1)c(SSc1c(C(=O)Nc3ccccc3)c3c(OC(C)=O)cccc3n1C)n2C
IC50 [1]: 10 µM

COC(=O)Cc1c(SSc2[nH]c3ccccc3c2CC(=O)OC)[nH]c2ccccc12
IC50 [1]: 18 µM

O=C1NC(=O)c2cc(NC3CCCCC3)c(NC3CCCCC3)cc21
IC50 [1]: > 1000 µM

CCN(CC)CC(O)CNc1cc2c(Nc3cccc(Br)c3)ncnc2cn1 (centres undefined)
IC50 [2]: 0.028 µM
